# Assay results as given in patent US20230331690A1, “THC DERIVATIVES, ORAL DOSAGE FORMS COMPRISING SAME, USES THEREOF FOR TREATING DISEASES AND DISORDERS AND SYNTHESIS THEREOF” (BAR-ILAN UNIVERSITY, priority 2020, published 2023).
# How the values were obtained:
# [1] = Pharmacokinetics, blood samples (Example 17); conditions: 0.5 h after i.p. injection of THC or THC-d5, label = analyte
# Protocol: The pharmacokinetics of 9-CD3-(8-D2)-THC compared to natural THC was evaluated using both intraperitoneal i.p. injection and an oral gavage administration for each material. The mice were divided into four groups containing 6 mice (24 mice total). For each group of mice, a blood sample was withdrawn at baseline (t=0), and half-hour intervals (t=0.5, 2 and 5 h) after administration of the drug. Three mice, half of each group, were euthanized with CO2 after 5 h and their organs (brain and liver) were collected. From the second half of each group, another blood sample was withdrawn 24 h after administration, and then these animals were euthanized and the brain and liver were collected for analysis.
# [2] = Pharmacokinetics, liver samples (Example 17); format: in vivo, mice; conditions: label = analyte
# [3] = Persistence over time, blood samples (Example 18); format: in vivo, mice; conditions: label = analyte
# Protocol: (§1) Blood samples from each mouse were collected at each time point for the pharmacokinetics tests. For 6 h after administrating of all tested drugs, and after testing their WRL on the hot plate, half the mice (n=3) of each group were sacrificed, and the liver and brain of each animal were taken for pharmacokinetics tests. From the remaining mice, blood samples were acquired at 12 h after administration for pharmacokinetics tests. At 24 h after drug administration, and after checking the WRL again, second half of each group of mice were sacrificed, and the liver and brain of each animal were taken for pharmacokinetics tests.
# [4] = Persistence over time, brain samples postmortem (Example 18); format: in vivo, mice; conditions: 8 mg/kg administered, died at 6 h; number in brackets = mice with a value
# Protocol: as §1
# (§2) All the results of the brain and liver samples, which were taken postmortem 6 h or 24 h after administration (n=3) are summarized in Tables 12-13.
# [5] = Persistence over time, liver samples postmortem (Example 18); format: in vivo, mice
# Protocol: as §1, §2
# [6] = 5 h after oral gavage administration of THC or THC-d5
# [7] = 24 h after i.p. injection of THC or THC-d5
structure (smiles),measurement,setting,value
CCCCCc1cc(O)c2c(c1)OC(C)(C)[C@@H]1CCC(CO)=C[C@@H]21 [11-OH-THC],"Component in the blood, mouse 1",[1],2.40 ng/mL
same,"Component in the blood, mouse 2",[1],2.44 ng/mL
same,"Component in the blood, mouse 3",[1],2.10 ng/mL
same,"Component in the blood, mouse 4",[1],3.43 ng/mL
same,"Component in the blood, mouse 5",[1],2.27 ng/mL
same,"Component in the blood, mouse 6",[1],2.37 ng/mL
same,"Component in the blood, Average",[1]; n=6 (THC-d5 n=5),2.50 ng/mL
same,"Component in the liver, mouse 1",[2]; [6],6.56 ng/mL
same,"Component in the liver, mouse 2",[2]; [6],23.90 ng/mL
same,"Component in the liver, mouse 3",[2]; [6],2.83 ng/mL
same,"Component in the liver, Average","[2]; 5 h after oral gavage administration of THC or THC-d5, n=3",11.10 ng/mL
same,"Component in the liver, mouse 1",[2]; [7],0.37 ng/mL
same,"Component in the liver, mouse 2",[2]; [7],3.12 ng/mL
same,"Component in the liver, mouse 3",[2]; [7],1.46 ng/mL
same,"Average results, blood samples","[3]; 4 mg/kg administration of THC or THC-d5, Time 0.5 h",1.54 ng/mL
same,"Average results, blood samples","[3]; 4 mg/kg administration, Time 3 h",0.18 (2/2) ng/mL
same,"Average results, blood samples","[3]; 8 mg/kg administration of THC or THC-d5, Time 0.5 h",1.96 ng/mL
same,"Average results, blood samples","[3]; 8 mg/kg administration, Time 3 h",0.44 ng/mL
same,Average results for 3 mice - brain samples,[4],5.2 (2) ng/g
same,"Average results for 3 mice (Table 13, liver)","[5]; 2 mg/kg administered, died at 6 h",8.76 ng/g
same,"Average results for 3 mice (Table 13, liver)","[5]; 4 mg/kg administered, died at 6 h",41.89 ng/g
same,"Average results for 3 mice (Table 13, liver)","[5]; 8 mg/kg administered, died at 6 h",22.94 ng/g
same,"Average results for 3 mice (Table 13, liver)","[5]; 8 mg/kg administered, died at 24 h, number in brackets = mice with a value",5.57 (1) ng/g
